24 compounds from US20160130278A1 (TAISHO PHARMACEUTICAL CO., LTD, priority 2013, published 2016) can be followed below.

The experiment deals with T1, human type 1 glycine transporter (GlyT1) (Homo sapiens, UniProt P48067).
T1 construct: T98G cells (glioma cells) expressing human type 1 glycine transporter (GlyT1) were used
T1 sequence (P48067 1-706): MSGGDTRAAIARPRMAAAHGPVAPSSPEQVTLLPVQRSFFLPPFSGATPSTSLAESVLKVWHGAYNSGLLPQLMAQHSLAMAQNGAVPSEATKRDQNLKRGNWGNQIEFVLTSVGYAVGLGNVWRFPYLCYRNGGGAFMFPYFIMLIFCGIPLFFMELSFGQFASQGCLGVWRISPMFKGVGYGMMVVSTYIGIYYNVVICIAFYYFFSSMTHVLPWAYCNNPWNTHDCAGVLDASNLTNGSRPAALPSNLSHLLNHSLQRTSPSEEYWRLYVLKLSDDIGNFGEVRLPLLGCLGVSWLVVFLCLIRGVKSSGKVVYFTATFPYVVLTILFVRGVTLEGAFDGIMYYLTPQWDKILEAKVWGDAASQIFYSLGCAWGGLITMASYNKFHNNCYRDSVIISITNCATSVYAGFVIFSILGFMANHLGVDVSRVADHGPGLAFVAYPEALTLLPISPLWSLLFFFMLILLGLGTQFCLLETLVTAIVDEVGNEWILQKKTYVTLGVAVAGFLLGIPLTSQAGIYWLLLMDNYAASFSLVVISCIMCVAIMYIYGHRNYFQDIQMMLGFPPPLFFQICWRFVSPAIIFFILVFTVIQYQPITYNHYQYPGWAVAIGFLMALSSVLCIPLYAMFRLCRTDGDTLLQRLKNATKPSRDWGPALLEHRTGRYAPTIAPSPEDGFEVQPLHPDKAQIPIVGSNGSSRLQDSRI
Description: Glycine uptake inhibition experiment ([3H]glycine uptake). The format is cell-based. As to conditions: GlyT1. The gist of the method:
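T98G glioma cells expressing human GlyT1 were pretreated 10 min with compound in HEPES buffer pH 7.4 (0.2% BSA), then incubated with compound plus 250 nM final [3H]glycine for 15 min at room temperature. Intracellular radioactivity was counted after NaOH lysis; 10 μM ALX5407 defined non-specific uptake. IC50 came from 10^−9–10^−5 M curves.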

The IC50 is the concentration that gives 50% inhibition. Low readings indicate greater potency, high ones weaker potency.

The compound `Cc1noc2nc(C3CC3)cc(C(=O)NC(c3cccc(F)c3Cl)[C@]3(O)CC[C@@H](F)CC3)c12` (single isomer, unassigned) [Compound 263, N-[(2-chloro-3-fluorophenyl)(cis-4-fluoro-1-hydroxycyclohexyl)methyl]-6-cyclopropyl-3-methyl[1,2]oxazolo[5,4-b]pyridine-4-carboxamide] yielded an IC50 of 990 nM. As to `O=C(NC(c1cccc(F)c1Cl)[C@]1(O)CC[C@@H](F)CC1)c1ccc(Cl)cc1Cl` (single isomer, unassigned) [Compound 264, 2,4-dichloro-N-[(2-chloro-3-fluorophenyl)(cis-4-fluoro-1-hydroxycyclohexyl)methyl]benzamide], it took 910 nM to reach half-maximal inhibition (IC50). In the case of `O=C(NC(c1cccnc1)[C@]1(O)CC[C@@H](F)CC1)c1nccc(C(F)(F)F)c1Cl` (single isomer, unassigned) [Compound 265, 3-chloro-N-[(cis-4-fluoro-1-hydroxycyclohexyl)(pyridin-3-yl)methyl]-4-(trifluoromethyl)pyridine-2-carboxamide], the 50% inhibitory concentration (IC50) turned out to be 890 nM. Take `O=C(NC(c1cccnc1)[C@]1(O)CC[C@@H](F)CC1)c1nccc(C(F)(F)F)c1Cl` (single isomer, unassigned) [Compound 266, 3-chloro-N-[(cis-4-fluoro-1-hydroxycyclohexyl)(pyridin-3-yl)methyl]-4-(trifluoromethyl)pyridine-2-carboxamide]: the half-inhibitory concentration (IC50) turned out to be 1600 nM.

In the case of `Cc1ccccc1C(=O)NC(c1cccc(F)c1Cl)[C@]1(O)CC[C@@H](F)CC1` (single isomer, unassigned) [Compound 267, N-[(2-chloro-3-fluorophenyl)(cis-4-fluoro-1-hydroxycyclohexyl)methyl]-2-methylbenzamide], 1900 nM corresponded to half-maximal inhibition (IC50). Compound `O=C(NC(c1cccc(F)c1Cl)[C@]1(O)CC[C@@H](F)CC1)c1cccnc1-n1cccn1` (single isomer, unassigned) [Compound 268, N-[(2-chloro-3-fluorophenyl)(cis-4-fluoro-1-hydroxycyclohexyl)methyl]-2-(1H-pyrazol-1-yl)pyridine-3-carboxamide] had an IC50 of 1700 nM. To `Cc1cc(C(=O)NC(c2cccc(F)c2Cl)[C@]2(O)CC[C@@H](F)CC2)c2cnn(C(C)C)c2n1` (single isomer, unassigned) [Compound 269, N-[(2-chloro-3-fluorophenyl)(cis-4-fluoro-1-hydroxycyclohexyl)methyl]-6-methyl-1-(propan-2-yl)-1H-pyrazolo[3,4-b]pyridine-4-carboxamide] belongs 1700 nM; to `O=C(NC(c1cccc(F)c1Cl)[C@]1(O)CC[C@@H](F)CC1)c1ccccc1-n1cnnn1` (single isomer, unassigned) [Compound 270, N-[(2-chloro-3-fluorophenyl)(cis-4-fluoro-1-hydroxycyclohexyl)methyl]-2-(1H-tetrazol-1-yl)benzamide], 2400 nM.

`O=C(NC(c1cccc(F)c1Cl)[C@]1(O)CC[C@@H](F)CC1)c1nsc(Cl)c1Cl` (single isomer, unassigned) [Compound 271, 4,5-dichloro-N-[(2-chloro-3-fluorophenyl)(cis-4-fluoro-1-hydroxycyclohexyl)methyl]-1,2-thiazol-3-carboxamide] showed an IC50 of 1100 nM. For the compound `Cn1nc(C(F)(F)F)cc1C(=O)NC(c1cccc(F)c1Cl)[C@]1(O)CC[C@@H](F)CC1` (single isomer, unassigned) [Compound 272, N-[(2-chloro-3-fluorophenyl)(cis-4-fluoro-1-hydroxycyclohexyl)methyl]-1-methyl-3-(trifluoromethyl)-1H-pyrazole-5-carboxamide], the IC50 came to 2500 nM. Regarding `O=C(NC(c1cccnc1Cl)[C@]1(O)CC[C@@H](F)CC1)c1nccc(C(F)(F)F)c1Cl` (single isomer, unassigned) [Compound 273, 3-chloro-N-[(2-chloropyridin-3-yl)(cis-4-fluoro-1-hydroxycyclohexyl)methyl]-4-(trifluoromethyl)pyridine-2-carboxamide], the IC50 is 330 nM. The compound `O=C(NC(c1cccc(Cl)n1)[C@]1(O)CC[C@@H](F)CC1)c1nccc(C(F)(F)F)c1Cl` (single isomer, unassigned) [Compound 274, 3-chloro-N-[(6-chloropyridin-2-yl)(cis-4-fluoro-1-hydroxycyclohexyl)methyl]-4-(trifluoromethyl)pyridine-2-carboxamide] came in with an IC50 of 77 nM. In turn, `O=C(NC(c1cccc(F)c1Cl)[C@]1(O)CC[C@@H](F)CC1)c1cccc2ccncc12` (single isomer, unassigned) [Compound 275, N-[(2-chloro-3-fluorophenyl)(cis-4-fluoro-1-hydroxycyclohexyl)methyl]isoquinoline-8-carboxamide] registered an IC50 of 1600 nM. The result for `O=C(NC(c1cccc(F)c1Cl)[C@]1(O)CC[C@@H](F)CC1)c1ccccc1C(F)(F)F` (single isomer, unassigned) [Compound 276, N-[(2-chloro-3-fluorophenyl)(cis-4-fluoro-1-hydroxycyclohexyl)methyl]-2-(trifluoromethyl)benzamide] reads 1600 nM; that for `O=C(NC(c1ccc(Cl)nc1)C1(O)CCC(F)(F)CC1)c1nccc(C(F)(F)F)c1Cl` (single isomer, unassigned) [Compound 277, 3-chloro-N-[(6-chloropyridin-3-yl)(4,4-difluoro-1-hydroxycyclohexyl)methyl]-4-(trifluoromethyl)pyridine-2-carboxamide], 640 nM. Take `O=C(NC(c1ccc(Cl)nc1)C1(O)CCC(F)(F)CC1)c1nccc(C(F)(F)F)c1Cl` (single isomer, unassigned) [Compound 278, 3-chloro-N-[(6-chloropyridin-3-yl)(4,4-difluoro-1-hydroxycyclohexyl)methyl]-4-(trifluoromethyl)pyridine-2-carboxamide]: the IC50 worked out at 2700 nM. `O=C(NC(c1cccc(F)c1Cl)[C@]1(O)CC[C@@H](F)CC1)c1nc(Cl)ccc1Cl` (single isomer, unassigned) [Compound 279, 3,6-dichloro-N-[(2-chloro-3-fluorophenyl)(cis-4-fluoro-1-hydroxycyclohexyl)methyl]pyridine-2-carboxamide] gave an IC50 of 3900 nM. `O=C(NC(c1cccc(F)c1Cl)[C@]1(O)CC[C@@H](F)CC1)c1cc(C(F)(F)F)ncc1Cl` (single isomer, unassigned) [Compound 280, 5-chloro-N-[(2-chloro-3-fluorophenyl)(cis-4-fluoro-1-hydroxycyclohexyl)methyl]-2-(trifluoromethyl)pyridine-4-carboxamide] gave an IC50 of 150 nM.

Regarding `CS(=O)(=O)c1ccccc1C(=O)NC(c1cccc(F)c1Cl)[C@]1(O)CC[C@@H](F)CC1` (single isomer, unassigned) [Compound 281, N-[(2-chloro-3-fluorophenyl)(cis-4-fluoro-1-hydroxycyclohexyl)methyl]-2-(methylsulfonyl)benzamide], 2100 nM corresponded to half-maximal inhibition (IC50). `O=C(NC(c1cccc(F)c1Cl)[C@]1(O)CC[C@@H](F)CC1)c1ccccc1OC(F)(F)F` (single isomer, unassigned) [Compound 282, N-[(2-chloro-3-flurophenyl)(cis-4-fluoro-1-hydroxycyclohexyl)methyl]-2-(trifluoromethoxy)benzamide]: the IC50 is 3400 nM. `Cc1ccc(-n2nccn2)c(C(=O)NC(c2cccc(F)c2Cl)[C@]2(O)CC[C@@H](F)CC2)n1` (single isomer, unassigned) [Compound 283, N-[(2-chloro-3-fluorophenyl)(cis-4-fluoro-1-hydroxycyclohexyl)methyl]-6-methyl-3-(2H-1,2,3-triazol-2-yl)pyridine-2-carboxamide] displayed an IC50 of 1100 nM. The compound `Cc1ccc(-c2ncccn2)c(C(=O)NC(c2cccc(F)c2Cl)[C@]2(O)CC[C@@H](F)CC2)n1` (single isomer, unassigned) [Compound 284, N-[(2-chloro-3-fluorophenyl)(cis-4-fluoro-1-hydroxycyclohexyl)methyl]-6-methyl-3-(pyrimidin-2-yl)pyridine-2-carboxamide] returned an IC50 of 1900 nM. `O=C(NC(c1cccc(F)c1Cl)[C@]1(O)CC[C@@H](F)CC1)c1ccc(Cl)cc1-n1nccn1` (single isomer, unassigned) [Compound 285, 4-chloro-N-[(2-chloro-3-fluorophenyl)(cis-4-fluoro-1-hydroxycyclohexyl)methyl]-2-(2H-1,2,3-triazol-2-yl)benzamide] returned an IC50 of 2000 nM.

`O=C(NC(c1cc(Cl)ccn1)[C@]1(O)CC[C@@H](F)CC1)c1nccc(C(F)(F)F)c1Cl` (single isomer, unassigned) [Compound 286, 3-chloro-N-[(4-chloropyridin-2-yl)(cis-4-fluoro-1-hydroxycyclohexyl)methyl]-4-(trifluoromethyl)pyridine-2-carboxamide] returned an IC50 of 140 nM.
